A word on the Km: it is the concentration of substrate that gives half-maximal velocity. What is called IC50 is the midpoint of a concentration-inhibition curve.

Read-outs that look alike come from different tables or passages of the source.

The values below come from patent publication US20030166201A1, “Selection systems for genetically modified cells” (priority 2001, published 2003).

The conditions of data set [1]: daily dosage of 2-3 g MMF, adult transplant recipients; cited from earlier work.
The next data set deals with type I IMPDH (Homo sapiens, UniProt P20839). The conditions noted are these: cited from earlier work; for Ki: product inhibition.
Sequence of type I IMPDH (P20839 whole entry): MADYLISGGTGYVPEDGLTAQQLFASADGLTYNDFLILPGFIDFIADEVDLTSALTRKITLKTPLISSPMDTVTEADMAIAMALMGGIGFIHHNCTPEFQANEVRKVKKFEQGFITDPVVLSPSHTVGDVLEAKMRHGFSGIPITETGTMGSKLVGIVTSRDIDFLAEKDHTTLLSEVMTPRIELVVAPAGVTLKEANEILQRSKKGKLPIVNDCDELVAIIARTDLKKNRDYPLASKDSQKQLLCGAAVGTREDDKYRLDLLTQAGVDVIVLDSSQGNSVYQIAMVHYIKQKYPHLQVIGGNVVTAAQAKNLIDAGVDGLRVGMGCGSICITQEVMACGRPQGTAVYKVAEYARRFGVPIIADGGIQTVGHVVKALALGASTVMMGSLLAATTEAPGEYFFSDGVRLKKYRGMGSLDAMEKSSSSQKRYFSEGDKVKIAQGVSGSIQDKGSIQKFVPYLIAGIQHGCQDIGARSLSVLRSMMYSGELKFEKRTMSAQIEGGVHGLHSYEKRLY
In the next data set the target is type II IMPDH (Homo sapiens, UniProt P12268). Conditions: cited from earlier work; for Ki: product inhibition.
Data set [2] addresses T1, DHODH (Homo sapiens, UniProt Q02127). The conditions noted are these: cited from earlier work; for Km: substrate/cosubstrate.
Target sequence in this assay (Q02127 whole entry): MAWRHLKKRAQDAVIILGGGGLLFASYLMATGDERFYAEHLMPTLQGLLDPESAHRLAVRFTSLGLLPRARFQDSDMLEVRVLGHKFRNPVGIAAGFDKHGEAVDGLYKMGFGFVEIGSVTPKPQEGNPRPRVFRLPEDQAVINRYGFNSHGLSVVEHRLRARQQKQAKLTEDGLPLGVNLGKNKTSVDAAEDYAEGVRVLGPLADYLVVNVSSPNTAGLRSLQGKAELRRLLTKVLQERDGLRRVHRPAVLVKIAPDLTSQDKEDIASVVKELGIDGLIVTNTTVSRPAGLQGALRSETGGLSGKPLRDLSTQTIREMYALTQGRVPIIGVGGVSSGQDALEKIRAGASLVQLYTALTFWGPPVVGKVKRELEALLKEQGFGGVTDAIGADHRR
A further data set concerns the target IMPDH. Conditions: competition for NAD+ cofactor-binding site; Yamada et al. 1989; read-out: Ki against NAD; cited from earlier work.
Data set [3] deals with T1, DHODH. Conditions: cited from earlier work.
Target sequence in this assay (Q02127 whole entry, species assumed): as the sequence (Q02127 whole entry) above
In data set [4] the test system is Jurkat T cells. Description: Viability (Trypan Blue) of untransfected or mock-transfected Jurkat T cells. Type of data set: cell-based, human. As for the experimental part:
(§1) Jurkat T cells (Human CD4+ T cell line from American Type Culture Collection, ATCC Number: TIB-152) were passaged in T cell culture media containing 0, 100, 125, 150, 175, and 200 μg/ml hygromycin. Unless otherwise stated, T cell culture media was prepared by addition of 13.7 ml HEPES (Irvine Scientific catalog No. 9319), 5 ml L-Glutamine (BioWhittaker Catalog No. 17-605C) and 57 ml heat inactivated fetal calf serum (Hyclone catalog No. SH30070.03) to 500 ml RPMI 1640 medium without Phenol Red pH indicator (Irvine Scientific catalog No. 9160).
The viability of Jurkat T cells and PBMCs was determined using the Trypan Blue method for counting and calculating the number of live cells. […] Viable cells (unstained cells) and dead cells (blue stained cells) were counted in two diagonally opposite large corner squares of the hemacytometer and the total number of viable cells in the suspension and percentage of viable cells in the population were calculated. The total number of viable cells in the suspension was calculated by multiplying the mean number of cells counted per square by the dilution factor multiplied by 10^4. The percentage of viable cells in the population was calculated by dividing the total number of viable cells per ml by the total number of cells per ml multiplied by 100. […]

For data set [5], the target named is T2, IMPDH type II (Homo sapiens, UniProt P12268). Conditions: cited from earlier work.
For data set [6], the target named is Tritrichomonas foetus IMPDH (Tritrichomonas foetus, UniProt P50097). The conditions noted are these: Farazi et al. 1997; cited from earlier work.
Sequence of Tritrichomonas foetus IMPDH (P50097 whole entry): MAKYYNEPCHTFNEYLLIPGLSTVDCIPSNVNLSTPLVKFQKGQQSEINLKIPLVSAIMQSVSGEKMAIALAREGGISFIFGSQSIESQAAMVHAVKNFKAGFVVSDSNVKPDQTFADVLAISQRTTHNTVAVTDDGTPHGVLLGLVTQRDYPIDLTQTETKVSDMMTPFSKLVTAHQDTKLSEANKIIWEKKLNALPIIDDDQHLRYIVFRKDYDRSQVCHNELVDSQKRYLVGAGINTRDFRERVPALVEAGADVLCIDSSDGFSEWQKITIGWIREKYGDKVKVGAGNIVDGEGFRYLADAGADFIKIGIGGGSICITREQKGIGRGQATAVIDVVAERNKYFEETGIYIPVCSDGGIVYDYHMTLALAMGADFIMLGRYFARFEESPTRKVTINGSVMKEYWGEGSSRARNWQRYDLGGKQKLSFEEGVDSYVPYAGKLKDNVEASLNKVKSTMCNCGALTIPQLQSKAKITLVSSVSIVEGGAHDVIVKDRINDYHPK
For data set [7], the system named is Jurkat T cells transfected with plasmid IMPDH(T333I/S351Y)/pMG. Description: Proliferation (3H-Tdr incorporation) of Jurkat T cells transfected with IMPDH(T333I/S351Y)/pMG. The format is cell-based, human.
The subject of data set [8] is OKT3/rhIL-2-activated PBMCs. Kind of data set: Proliferation (3H-Tdr incorporation) of OKT3/rhIL-2-activated PBMCs. Conditions: MPA 1×10^−7M to 1×10^−4M, 72, 96, 144 hours. The format is cell-based, human. On the procedure:
(§2) Five hundred million freshly isolated, healthy donor peripheral blood mononuclear cells (PBMCs) were diluted to a volume of 500 ml with T cell culture media. PBMCs were activated with 15 λ anti-CD3 monoclonal antibody Orthoclone OKT3 (Ortho Biotech Inc.). Ten 50 ml aliquots of PBMC/OKT3 were placed in separate flasks. To each PBMC/OKT3 flask, 50 μL of stock 50 U/μl recombinant human IL-2 (Chiron catalog No. 53905-991-01) was added to stimulate proliferation. OKT3/rhIL-2-activated PBMCs were passaged under the same conditions as described for the Jurkat T cells. The amount of Jurkat T cell and PBMC proliferation was determined by measuring DNA incorporation of ^3H-Tdr 8, 10, 12, and 15 days thereafter.
To assess proliferation by ^3H-Tdr incorporation, a volume of cell suspension containing 5×10^6 cells was diluted to 10 ml and incubated at 37° C. and 5% CO2. […] Wells were harvested onto filter paper using a PhD Cell Harvester and CPM were counted in a liquid scintillation counter by standard scintillation procedures.
(§3) The amount of cell proliferation and viability were measured by the methods described in Example 1 at 72, 96, and 144 hours thereafter. OKT3/rhlL-2-activated PBMCs from healthy donors were passaged under the above conditions, and the amount of cell proliferation measured at the same time intervals.

Another data set addresses Bacillus subtilis IMPDH (Bacillus subtilis, UniProt P21879). The conditions noted are these: Farazi et al. 1997; cited from earlier work.
Data set [9] concerns Jurkat T cells. Kind of data set: Proliferation (3H-Tdr incorporation) of untransfected or mock-transfected Jurkat T cells. The format is cell-based, human. On the procedure: as §1
To assess proliferation by ^3H-Tdr incorporation, a volume of cell suspension containing 5×10^6 cells was diluted to 10 ml and incubated at 37° C. and 5% CO2. On days 8, 10, 12, and 15, volumes of cell suspension yielding 0.6×10^6 cells were placed in 15 ml conical tubes and centrifuged at 1100 rpm for 8 minutes at room temperature. Supernatant was removed and cells were resuspended in […] T cell media. Aliquots of 0.1 ml each were dispensed into wells of a 96 well round bottom plate. Six wells were used for each clone. ^3H-Tdr (ICN catalog No. 24041) was diluted 1:20 with T cell media. Each well was pulsed by adding 50 μl/well (lpCi ^3H-Tdr/well) dilute ^3H-Tdr and incubating for 4 hours. Wells were harvested onto filter paper using a PhD Cell Harvester and CPM were counted in a liquid scintillation counter by standard scintillation procedures.
as §3
Jurkat T cells (ATCC Number: TIB-152) were grown in T cell culture media in log phase and then subjected to electroporation by the method described in Example 1 in the presence of plasmid DNA vector IMPDH(T333I/S351Y)/pMG as described above. As a control (“mock”), Jurkat T cells were mock-transfected by electroporation with plasmid-free buffer.
As a control, mock-transfected Jurkat T cells were passaged under the same conditions.
As a control, mock-transfected Jurkat T cells were cultured under the same conditions.

Data set [10] has as its system Jurkat T cells transfected with plasmid IMPDH(T333I/S351Y)/pMG. Description: Viability (Trypan Blue) of Jurkat T cells transfected with IMPDH(T333I/S351Y)/pMG. Type of data set: cell-based, human. Conditions: hygromycin-resistant transfectants.
The next data set concerns the target Escherichia coli IMPDH (Escherichia coli, UniProt P0ADG7). Conditions: Farazi et al. 1997; cited from earlier work.
Data set [11] concerns OKT3/rhIL-2-activated PBMCs. Kind of data set: Viability (Trypan Blue) of OKT3/rhIL-2-activated PBMCs. Type of data set: cell-based, human. The conditions noted are these: MPA 1×10^−7M to 1×10^−4M, 72, 96, 144 hours. As for the experimental part: as §2
The viability of Jurkat T cells and PBMCs was determined using the Trypan Blue method for counting and calculating the number of live cells. […] Viable cells (unstained cells) and dead cells (blue stained cells) were counted in two diagonally opposite large corner squares of the hemacytometer and the total number of viable cells in the suspension and percentage of viable cells in the population were calculated. The total number of viable cells in the suspension was calculated by multiplying the mean number of cells counted per square by the dilution factor multiplied by 10^4. […]

Data set [12] addresses T2, IMPDH type II. The conditions noted are these: uncompetitive inhibitor; read-out: Ki against type II; cited from earlier work.
The next data set addresses IMPDH type I (Homo sapiens, UniProt P20839). Conditions: uncompetitive inhibitor; read-out: Ki against type I; cited from earlier work.
For data set [13], the system named is B cell and T cell proliferation. Conditions: cited from earlier work.
Where [14] appears, read: human DHODH, read-out: Ki, uncompetitive with respect to dihydroorotate.
Where [15] appears, read: Jurkat, MPA 1×10^−7M to 1×10^−4M, 72, 96, 144 hours.

Sequence of IMPDH type I (P20839 whole entry): as the sequence (P20839 whole entry) above
Sequence of Bacillus subtilis IMPDH (P21879 whole entry): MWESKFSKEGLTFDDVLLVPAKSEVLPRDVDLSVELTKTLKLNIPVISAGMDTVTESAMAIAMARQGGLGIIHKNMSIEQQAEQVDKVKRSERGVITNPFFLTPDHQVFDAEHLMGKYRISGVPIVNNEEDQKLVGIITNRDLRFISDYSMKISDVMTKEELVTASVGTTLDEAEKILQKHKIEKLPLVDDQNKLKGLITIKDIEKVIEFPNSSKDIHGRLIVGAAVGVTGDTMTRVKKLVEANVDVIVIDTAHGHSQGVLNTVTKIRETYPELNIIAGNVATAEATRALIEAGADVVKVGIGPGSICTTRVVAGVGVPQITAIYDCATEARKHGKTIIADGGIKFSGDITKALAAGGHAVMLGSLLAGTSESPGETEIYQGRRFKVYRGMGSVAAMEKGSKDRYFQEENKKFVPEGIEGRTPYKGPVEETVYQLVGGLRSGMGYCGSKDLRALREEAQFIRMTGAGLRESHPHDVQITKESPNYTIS
Sequence of Escherichia coli IMPDH (P0ADG7 whole entry): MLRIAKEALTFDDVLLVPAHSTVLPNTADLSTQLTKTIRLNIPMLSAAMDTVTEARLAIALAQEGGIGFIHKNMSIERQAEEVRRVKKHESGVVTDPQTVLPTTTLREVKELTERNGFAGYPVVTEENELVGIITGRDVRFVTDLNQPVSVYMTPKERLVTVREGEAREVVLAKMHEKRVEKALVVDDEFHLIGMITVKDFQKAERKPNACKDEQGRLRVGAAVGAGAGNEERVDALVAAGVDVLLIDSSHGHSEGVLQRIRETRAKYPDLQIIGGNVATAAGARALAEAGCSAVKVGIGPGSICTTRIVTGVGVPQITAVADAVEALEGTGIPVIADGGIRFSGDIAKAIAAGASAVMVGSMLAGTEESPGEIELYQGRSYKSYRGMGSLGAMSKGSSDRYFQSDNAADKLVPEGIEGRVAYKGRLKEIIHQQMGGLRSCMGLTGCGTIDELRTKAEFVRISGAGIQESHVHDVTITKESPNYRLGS

For the compound `COc1c(C)c2c(c(O)c1C/C=C(\C)CCC(=O)OCCN1CCOCC1)C(=O)OC2` [MMF, Mycophenolate mofetil], the “therapeutically relevant blood trough levels” value in data set [1] was 1 to 5 µg/mL.
With `NC(=O)c1ccc[n+]([C@@H]2O[C@H](COP(=O)([O-])OP(=O)(O)OC[C@H]3O[C@@H](n4cnc5c(N)ncnc54)[C@H](O)[C@@H]3O)[C@@H](O)[C@H]2O)c1` [NAD], the Km at type I IMPDH (substrate/cofactor) is about 46 µM; on type II IMPDH (substrate/cofactor), about 32 µM.
With `COC1=C(OC)C(=O)C(C/C=C(\C)CC/C=C(\C)CC/C=C(\C)CC/C=C(\C)CC/C=C(\C)CC/C=C(\C)CC/C=C(\C)CC/C=C(\C)CC/C=C(\C)CCC=C(C)C)=C(C)C1=O` [ubiquinone], on DHODH [2] (human DHODH), the Km was about 110 µM.
On to `NC(=O)c1csc(C2O[C@@H](COP(=O)(O)OP(=O)(O)OC[C@H]3OC(n4cnc5c(N)ncnc54)[C@H](O)[C@@H]3O)[C@H](O)[C@@H]2O)n1` (stereo partly shown) [TAD, thiazole-4-carboxamide adenine dinucleotide], for which the Ki at IMPDH was 0.075 µM.
Consider `O=C1C(O)=C([C@H]2CC[C@H](c3ccc(Cl)cc3)CC2)C(=O)c2ccccc21` [Atovaquone], for which the Ki on DHODH [2] (setting [14]) is 11.5 µM.
As to xanthine monophosphate [XMP], the results for the Ki on type I IMPDH and on type II IMPDH were about 80 µM and about 94 µM, respectively.
For the compound `O=C1C(O)=C(CC=C(Cl)Cl)C(=O)c2ccccc21` [DCL, dichloroallyl lawsone], the Ki was 0.0098 µM on DHODH [2] (human DHODH, read-out: Ki, competitive with respect to ubiquinone) and 0.038 µM on DHODH [2] (setting [14]).
Take `COc1cc(-c2ccc(Nc3ccccc3C(=O)O)c(OC)c2)ccc1Nc1ccccc1C(=O)O` [Redoxal]: the Ki on DHODH [2] (non-competitive for dihydroorotate and ubiquinone, read-out: apparent Ki) is 0.33 µM.
As to `O=C(O)c1cc(=O)[nH]c(=O)[nH]1` [Orotate], the Ki was 22 ± 3 µM on DHODH [2] (competitive with respect to dihydroorotate, read-out: Kis (slope inhibition constant)) and 60 ± 10 µM on DHODH [2] (uncompetitive with respect to quinone, read-out: Kij (intercept inhibition constant)).
For the compound `CCCCCCCCCCC1=C(C)C(=O)C(OC)=C(OC)C1=O` [decylubiqunone], the Km at DHODH [2] (human DHODH) is about 13.7 µM.
For `Cc1nc2c(n1-c1ccc(Br)cc1)C(=O)c1ccccc1C2=O` [BNID, 1-(p-bromophenyl)-2-methyl 1H-napth(2,3-d)-imidazole-4,9-dione], at DHODH [3], the Ki is 0.53 µM.
Turning to `O=C1CC(C(=O)O)NC(=O)N1` (stereo not shown) [dihydroorotate], on DHODH [2] (human DHODH), the Km was about 9.4 µM.
For the compound `CC(=O)N1CCc2c([nH]c3ccc(Br)cc23)C1c1ccccc1` (stereo not shown) [NSC 665564], on DHODH [3], the “IC50 compared with Brequinar” value was “comparable IC50 to Brequinar” and the “Ki compared with Brequinar” value was “lower Ki”.
On to `COc1c(C)c2c(c(O)c1C/C=C(\C)CCC(=O)O)C(=O)OC2` [MPA, Mycophenolic acid], for which the “viability vs. absence of MPA” value in the data set on Jurkat T cells [4] (setting [15]) was “significantly reduced”; in [11] it was “significantly reduced by MPA at all concentrations, except the lowest concentration”. Moreover, in the data set on Jurkat T cells [4] (mock-transfected Jurkat, by 36 days), the “viable cells in medium containing mycophenolic acid” value is recorded as “no viable cells were detected”. Also, the “higher binding affinity for human IMPDH type II over human IMPDH type I” value at IMPDH type II [5] is “approximately 5 fold”. For the same compound, the Ki in data set [6] was 14 µM; on Bacillus subtilis IMPDH, 0.5 µM; on Escherichia coli IMPDH, 20 µM. In addition, the “maximum 3H-Tdr incorporation maintained” value in data set [7] (five of the ten MPA-resistant clones, MPA 1×10^−6M or less) is reported as “greater than 50%”. For the same compound, the “proliferation, % of the maximum proliferation in the absence of MPA” value in data set [7] (hygromycin-resistant transfectants, 2×10^−6M to 2×10^−7M MPA) was 20-92%. For the same compound, in [7] (limiting dilution in 3×10^−6 M mycophenolic acid, 21 days after transfection, 10^4 cells per well), the “transfectant cells demonstrating proliferation” value is reported as “Approximately 10%”. The “proliferation vs. absence of MPA” value in data set [8] is on record as “significantly reduced by MPA at all concentrations, except the lowest concentration”; with Jurkat T cells [9] (setting [15]), “significantly reduced”. Also, the “proliferation in presence of mycophenolic acid” value in the data set with Jurkat T cells [9] (control Jurkat, MPA 1×10^−6M to 2×10^−5M) is recorded as “essentially completely inhibited”. For the same compound, the “proliferation in medium containing mycophenolic acid” value with Jurkat T cells [9] (mock-transfected Jurkat, MPA 2×10^−7M to 2×10^−5M) is recorded as “did not proliferate”. Moreover, the “3H-Tdr incorporation, % of media control” value with Jurkat T cells [9] (mock-transfected Jurkat, mycophenolic acid 2×10^−7 M and greater) is reported as “less than 3%”. The “viability at day 21 post-transfer compared to day 0” value in [10] (higher concentrations of mycophenolic acid) was “somewhat less viable”. In [10] (lower concentrations of mycophenolic acid), the “viability at day 21 post-transfer” value is “more viable at day 21 post-transfer than those cultured in medium containing higher concentrations of mycophenolic acid”.
Consider `NC(=O)C1=CN([C@@H]2O[C@H](COP(=O)(O)OP(=O)(O)OC[C@H]3O[C@@H](n4cnc5c(N)ncnc54)[C@H](O)[C@@H]3O)[C@@H](O)[C@H]2O)C=CC1` [NADH], for which the Ki was about 102 µM at type I IMPDH and about 90 µM on type II IMPDH.
Take `COc1cc(NC(=O)Nc2cccc(CNC(=O)O[C@H]3CCOC3)c2)ccc1-c1cnco1` [VX-497]: the Ki at IMPDH type II [12] is 0.01 µM; at IMPDH type I it was 0.007 µM. Moreover, the IC50 in [13] was about 0.1 µM.
